Experimental data from PubChem BioAssay (NCI).
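How tested: cells in 96-well plates exposed to compound for 48 hours at five concentrations. GI50 is the concentration that inhibits growth by half. TGI: total growth inhibition.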 *1 amine or outer side, *2 acyl side, *3 side chain or, on linkers, in order; H or OH if unused. Where a SMILES comes first, the peptide text is derived from it. [ ]: non-standard residue; d: D form. ξ: configuration not given here. X21 = CC[C@@H](C)C(N[*:1])C(=O)[*:2]; ξR = N=C(N)NCCCC(N)C(=O)O; ξI = CCC(C)C(N)C(=O)O; ξL = CC(C)CC(N)C(=O)O; ξK = NCCCCC(N)C(=O)O; ξV = CC(C)C(N)C(=O)O; ξA = CC(N)C(=O)O

Experiments:
Test in all cases: growth of human tumour cells (NCI), 48 h
HCT-116 colon = system: HCT-116 colon
NCI/ADR-RES ovarian = system: NCI/ADR-RES ovarian
SK-MEL-5 melanoma = system: SK-MEL-5 melanoma
U251 CNS = system: U251 CNS
SW-620 colon = system: SW-620 colon
MDA-MB-231 breast = system: MDA-MB-231 breast
HCC-2998 colon = system: HCC-2998 colon
LOX IMVI melanoma = system: LOX IMVI melanoma

SMILES	GI50 (HCT-116 colon) [µM]	TGI (HCT-116 colon) [µM]	GI50 (NCI/ADR-RES ovarian) [µM]	TGI (NCI/ADR-RES ovarian) [µM]	GI50 (SK-MEL-5 melanoma) [µM]	TGI (SK-MEL-5 melanoma) [µM]	GI50 (U251 CNS) [µM]	TGI (U251 CNS) [µM]	GI50 (SW-620 colon) [µM]	TGI (SW-620 colon) [µM]	GI50 (MDA-MB-231 breast) [µM]	TGI (MDA-MB-231 breast) [µM]	GI50 (HCC-2998 colon) [µM]	TGI (HCC-2998 colon) [µM]	GI50 (LOX IMVI melanoma) [µM]	TGI (LOX IMVI melanoma) [µM]
COc1ccc(N(/C=C/C(=O)C(F)(F)F)CC(=O)c2ccc(Cl)c(Cl)c2)cc1	9.94	21.5	19	39.3	7	20.4	12.2	25.3	27	> 100	14.4	38.6	18.5	32.5	11.8	27.4
CC(=O)OC1Oc2ccccc2-c2oc(=O)c(-c3cc4ccccc4oc3=O)cc21 (stereo unspecified)			22.5	51.3	24.8	57.8	14.7	28.3	65	> 100	17.4	35	57.7	> 100	14.9	29.6
COc1ccccc1/C=C/C(=O)/C=C/c1ccccc1OC	1.27	2.62	2.53	8.98	1.5	2.87	1.55	3.24	1.51	3.37	2.97	8.75	1.92	3.37	1.53	3.01
C=C1C[C@@]2(C)C(CC[C@]3(C)C2CC=C2C4CC(C)(C)C[C@@H](OC(=O)/C(C)=C\C)[C@]4(C(=O)O)CC[C@]23C)C(C)(C)C1=O (stereo partly specified)	1.81	3.91	3.45	33.4	3.35	11.2	2.46	6.83	2.74	9.31	5.96	31.4	2.02	4.52		
Cc1cc(N(CCCl)CCCl)ccc1/C=N/NC(=O)Cc1cc(=O)oc2cc(O)ccc12		40.5		> 100		21.1		43.4		66.9		86.8		72		26.7
COc1ccccc1-c1cc(=O)c2ccc(OC)c(OC)c2o1		> 100		> 100		> 100		> 100		> 100		> 100		> 100		> 100
Nc1nc(-c2cccc([N+](=O)[O-])c2)cc(-c2cc(-c3cccc([N+](=O)[O-])c3)nc(N)n2)n1		> 100		> 100		> 100		> 100		> 100		> 100		> 100		> 100
COc1ccc2c(c1)/C(=N/OC(C)=O)c1c-2c(=O)[nH]c2ccccc12	3.35	12.4	2.83	17.9	5.79	19.4	15.5	30.1	14.2	30.3	13	27.3	3.29	13.5	14.8	29.4
COc1ccc(/C=C/NC=O)cc1		> 100		> 100		> 100		> 100		> 100		> 100		> 100		> 100
CCSc1nnc(-c2ccc3ccccc3c2O)n1-c1ccc(Cl)cc1	4	> 100	4.45	> 100	6.01	> 100	4.05	> 100	4.28	> 100	> 100	> 100	> 100	> 100	5.52	> 100
CC(C)Nc1ncc2cc(Oc3ccc(F)cc3F)c(=O)n(C)c2n1	> 25	> 25	> 25	> 25	> 25	> 25	> 25	> 25	> 25	> 25	21	> 25	> 25	> 25	> 25	> 25
CCC(C)C1NC(=O)C(CC(C)C)NC(=O)C(C)NC(=O)C(C(C)C)NC(=O)C(CCCCN)NC(=O)C(CC(C)C)NC(=O)C(C(C)C)NC(=O)[C@H](C)NC(=O)C(C(C)CC)NC(=O)C(CCCN=C(N)N)NC(=O)C(CCCCN)NC(=O)C(CCCN=C(N)N)NC(=O)C(CCCCN)NC(=O)C([C@H](C)CC)NC(=O)C(CCCCN)NC1=O (stereo partly specified) (cyclo(A[ξV][ξL][ξK][ξV][ξA][ξL][ξI][ξK][X21][ξK][ξR][ξK][ξR][ξI]))	1.35	2.84	1.06	3.84	0.6	1.87	1.5	3.44	1.56	3.39	1.62	3.73	1.83	4.22	1.62	3.03
C[C@H](N)C(=O)N1C[C@H](CCCB(O)O)[C@](N)(C(=O)O)C1	> 100	> 100	> 100	> 100	> 100	> 100	> 100	> 100	> 100	> 100	> 100	> 100	> 100	> 100	> 100	> 100
CNCCCNCCCN1C(=O)c2ccc3c4c(ccc(c24)C1=O)C(=O)N(CCCNCc1ccccc1OC)C3=O	0.27	1.21	12.1	71.1	1.1	2.32	1.61	7.67	0.365	5.12	2.9	14	1.93	6.42	1.52	9.75
C=C1C(=O)O[C@H]2[C@H]1CC/C(COC(=O)c1ccccc1)=C\CC[C@@]1(C)O[C@@H]21	0.469	1.82	2.67	9.05	1.63	3.03	1.67	3.37	0.407	1.75	1.69	4.36	2.35	4.95	1.32	2.74
Cc1cc2cn3c4cccnc4[nH]c(=O)c3c2cc1C	1.45	2.76	1.39	2.96	1.13	2.34			1.09	2.47			1.5	2.92	1.47	2.99
Cc1ccc(Oc2ccc([N+](=O)[O-])cc2[N+](=O)[O-])c(C)c1		> 100				50		> 100		> 100				> 100		
